Experimental data taken from the kinase profiling compilation of Christmann-Franck et al. (2016).

Tests used:
Test in all cases: KINOMEscan competition binding
Details in all cases: compound 10.0 µM
[1] = biological target: EPHB3 (human) (UniProt P54753)
[2] = biological target: PIP5K1A (human) (UniProt Q99755)
[3] = biological target: NEK3 (human) (UniProt P51956)
[4] = biological target: RAF1 (human) (UniProt P04049)
[5] = biological target: CSNK1E (human) (UniProt P49674)
[6] = biological target: DCLK2 (human) (UniProt Q8N568)
[7] = biological target: MAPK3 (human) (UniProt P27361)
[8] = biological target: PRKCI (human) (UniProt P41743)
[9] = biological target: INSR (human) (UniProt P06213)
[10] = biological target: LYN (human) (UniProt P07948)
[11] = biological target: CSNK1G2 (human) (UniProt P78368)
[12] = biological target: MAPK6 (human) (UniProt Q16659)
[13] = biological target: RIOK1 (human) (UniProt Q9BRS2)
[14] = biological target: IRAK3 (human) (UniProt Q9Y616)
[15] = biological target: PRPF4B (human) (UniProt Q13523)
[16] = biological target: MAST1 (human) (UniProt Q9Y2H9)
[17] = biological target: CDK13 (human) (UniProt Q14004)
[18] = biological target: PIM1 (human) (UniProt P11309)
[19] = biological target: EPHB6 (human) (UniProt O15197)
[20] = biological target: PKN1 (human) (UniProt Q16512)
[21] = biological target: GRK7 (human) (UniProt Q8WTQ7)
[22] = biological target: PIK3CG (human) (UniProt P48736)
[23] = biological target: LTK (human) (UniProt P29376)
[24] = biological target: MARK2 (human) (UniProt Q7KZI7)
[25] = biological target: MAP4K2 (human) (UniProt Q12851)
[26] = biological target: BMPR2 (human) (UniProt Q13873)
[27] = biological target: NEK4 (human) (UniProt P51957)
[28] = biological target: SNRK (human) (UniProt Q9NRH2)
[29] = biological target: NUAK2 (human) (UniProt Q9H093)
[30] = biological target: ERBB3 (human) (UniProt P21860)
[31] = biological target: HIPK2 (human) (UniProt Q9H2X6)
[32] = biological target: MAP3K11 (human) (UniProt Q16584)
[33] = biological target: TAOK2 (human) (UniProt Q9UL54)
[34] = biological target: STK32A (human) (UniProt Q8WU08)
[35] = biological target: MET (human) (UniProt P08581)
[36] = biological target: CHEK2 (human) (UniProt O96017)
[37] = biological target: CRK2 (P.falciparum) (UniProt P61075)
[38] = test system: MET (human), P08581 [Y1235D]
[39] = biological target: CSF1R (human) (UniProt P07333)

IRAK3 (human), sequence (Q9Y616 whole entry, looked up): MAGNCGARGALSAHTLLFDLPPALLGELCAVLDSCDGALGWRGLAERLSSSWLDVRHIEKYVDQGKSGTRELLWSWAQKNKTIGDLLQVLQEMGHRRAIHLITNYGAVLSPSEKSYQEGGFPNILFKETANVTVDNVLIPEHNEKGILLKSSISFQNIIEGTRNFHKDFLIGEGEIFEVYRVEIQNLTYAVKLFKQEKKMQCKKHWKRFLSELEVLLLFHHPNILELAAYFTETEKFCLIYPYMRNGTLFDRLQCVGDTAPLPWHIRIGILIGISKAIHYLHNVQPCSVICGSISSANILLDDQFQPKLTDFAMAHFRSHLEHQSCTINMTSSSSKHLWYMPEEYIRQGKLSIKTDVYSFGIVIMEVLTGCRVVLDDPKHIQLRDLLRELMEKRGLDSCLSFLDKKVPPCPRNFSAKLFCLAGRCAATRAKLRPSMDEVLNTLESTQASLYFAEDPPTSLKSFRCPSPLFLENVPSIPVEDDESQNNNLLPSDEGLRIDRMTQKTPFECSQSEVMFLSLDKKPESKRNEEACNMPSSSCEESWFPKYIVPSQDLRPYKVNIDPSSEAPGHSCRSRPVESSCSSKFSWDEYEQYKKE
NEK4 (human), sequence (P51957 whole entry, looked up): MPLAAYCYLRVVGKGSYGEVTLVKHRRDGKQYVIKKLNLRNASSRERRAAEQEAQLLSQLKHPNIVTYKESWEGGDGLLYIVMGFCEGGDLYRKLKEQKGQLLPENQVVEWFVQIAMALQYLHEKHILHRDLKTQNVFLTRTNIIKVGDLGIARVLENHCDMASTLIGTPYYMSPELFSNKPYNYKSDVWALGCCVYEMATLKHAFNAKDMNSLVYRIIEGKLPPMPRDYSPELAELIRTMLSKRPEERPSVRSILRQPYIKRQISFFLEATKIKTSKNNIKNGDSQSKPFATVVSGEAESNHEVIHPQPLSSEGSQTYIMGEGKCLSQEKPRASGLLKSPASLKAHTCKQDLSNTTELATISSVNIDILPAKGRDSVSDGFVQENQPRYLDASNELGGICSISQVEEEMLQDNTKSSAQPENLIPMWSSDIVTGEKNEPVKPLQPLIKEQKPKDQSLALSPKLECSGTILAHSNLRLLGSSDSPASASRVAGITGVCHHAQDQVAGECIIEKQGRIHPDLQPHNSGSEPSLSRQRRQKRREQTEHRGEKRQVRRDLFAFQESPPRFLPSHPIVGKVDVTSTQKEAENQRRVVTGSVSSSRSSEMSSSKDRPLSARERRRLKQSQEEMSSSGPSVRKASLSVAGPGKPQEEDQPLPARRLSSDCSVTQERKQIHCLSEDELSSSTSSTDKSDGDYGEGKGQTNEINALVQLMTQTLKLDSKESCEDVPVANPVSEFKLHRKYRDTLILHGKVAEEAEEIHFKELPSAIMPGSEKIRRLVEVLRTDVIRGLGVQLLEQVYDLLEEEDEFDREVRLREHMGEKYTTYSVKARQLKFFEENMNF
PRPF4B (human), sequence (Q13523 whole entry, looked up): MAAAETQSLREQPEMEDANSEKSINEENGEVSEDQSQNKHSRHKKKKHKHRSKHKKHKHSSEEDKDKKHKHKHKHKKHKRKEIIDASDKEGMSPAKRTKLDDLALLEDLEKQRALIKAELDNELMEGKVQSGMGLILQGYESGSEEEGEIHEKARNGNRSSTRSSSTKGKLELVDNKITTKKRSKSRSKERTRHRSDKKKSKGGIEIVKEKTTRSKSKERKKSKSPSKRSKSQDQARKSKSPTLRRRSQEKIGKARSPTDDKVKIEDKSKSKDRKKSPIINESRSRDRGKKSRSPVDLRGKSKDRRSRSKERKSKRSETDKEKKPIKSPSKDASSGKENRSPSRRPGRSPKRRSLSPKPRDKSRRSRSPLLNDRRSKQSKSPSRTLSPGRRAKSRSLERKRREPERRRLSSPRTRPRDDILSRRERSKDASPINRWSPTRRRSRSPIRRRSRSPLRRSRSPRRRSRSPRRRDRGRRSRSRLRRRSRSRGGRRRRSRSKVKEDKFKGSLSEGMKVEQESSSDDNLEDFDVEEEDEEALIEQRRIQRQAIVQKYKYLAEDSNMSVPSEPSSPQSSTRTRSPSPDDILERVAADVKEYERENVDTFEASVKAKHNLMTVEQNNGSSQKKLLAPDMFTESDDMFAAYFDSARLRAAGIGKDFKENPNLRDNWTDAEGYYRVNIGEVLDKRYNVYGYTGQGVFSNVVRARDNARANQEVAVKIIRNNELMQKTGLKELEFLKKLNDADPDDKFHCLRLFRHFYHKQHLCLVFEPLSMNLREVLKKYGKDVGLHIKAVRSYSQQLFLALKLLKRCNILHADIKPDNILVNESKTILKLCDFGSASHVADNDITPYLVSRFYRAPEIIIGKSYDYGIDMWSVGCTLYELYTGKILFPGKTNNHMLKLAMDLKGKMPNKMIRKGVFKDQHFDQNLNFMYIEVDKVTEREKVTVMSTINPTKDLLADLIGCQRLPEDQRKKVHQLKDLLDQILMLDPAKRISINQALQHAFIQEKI
DCLK2 (human), sequence (Q8N568 whole entry, looked up): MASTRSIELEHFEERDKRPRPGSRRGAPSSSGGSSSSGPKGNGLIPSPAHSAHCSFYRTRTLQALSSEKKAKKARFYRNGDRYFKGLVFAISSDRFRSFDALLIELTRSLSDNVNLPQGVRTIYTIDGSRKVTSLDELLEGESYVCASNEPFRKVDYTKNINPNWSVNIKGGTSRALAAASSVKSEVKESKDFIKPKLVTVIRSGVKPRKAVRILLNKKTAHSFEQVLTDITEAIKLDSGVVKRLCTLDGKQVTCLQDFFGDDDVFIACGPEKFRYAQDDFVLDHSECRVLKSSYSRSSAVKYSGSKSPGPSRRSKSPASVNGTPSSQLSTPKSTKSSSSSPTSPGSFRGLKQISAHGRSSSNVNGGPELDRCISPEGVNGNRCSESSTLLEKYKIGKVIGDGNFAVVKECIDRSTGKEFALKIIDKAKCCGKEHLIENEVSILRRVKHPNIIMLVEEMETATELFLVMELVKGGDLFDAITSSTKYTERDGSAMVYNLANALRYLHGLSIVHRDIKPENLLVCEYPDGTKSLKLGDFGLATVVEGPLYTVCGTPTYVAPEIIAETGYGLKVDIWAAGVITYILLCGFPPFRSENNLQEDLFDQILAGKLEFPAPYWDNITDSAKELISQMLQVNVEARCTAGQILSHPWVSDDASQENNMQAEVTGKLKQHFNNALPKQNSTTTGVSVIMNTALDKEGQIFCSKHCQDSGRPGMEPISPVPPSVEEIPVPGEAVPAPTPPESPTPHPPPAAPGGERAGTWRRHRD
TAOK2 (human), sequence (Q9UL54 whole entry, looked up): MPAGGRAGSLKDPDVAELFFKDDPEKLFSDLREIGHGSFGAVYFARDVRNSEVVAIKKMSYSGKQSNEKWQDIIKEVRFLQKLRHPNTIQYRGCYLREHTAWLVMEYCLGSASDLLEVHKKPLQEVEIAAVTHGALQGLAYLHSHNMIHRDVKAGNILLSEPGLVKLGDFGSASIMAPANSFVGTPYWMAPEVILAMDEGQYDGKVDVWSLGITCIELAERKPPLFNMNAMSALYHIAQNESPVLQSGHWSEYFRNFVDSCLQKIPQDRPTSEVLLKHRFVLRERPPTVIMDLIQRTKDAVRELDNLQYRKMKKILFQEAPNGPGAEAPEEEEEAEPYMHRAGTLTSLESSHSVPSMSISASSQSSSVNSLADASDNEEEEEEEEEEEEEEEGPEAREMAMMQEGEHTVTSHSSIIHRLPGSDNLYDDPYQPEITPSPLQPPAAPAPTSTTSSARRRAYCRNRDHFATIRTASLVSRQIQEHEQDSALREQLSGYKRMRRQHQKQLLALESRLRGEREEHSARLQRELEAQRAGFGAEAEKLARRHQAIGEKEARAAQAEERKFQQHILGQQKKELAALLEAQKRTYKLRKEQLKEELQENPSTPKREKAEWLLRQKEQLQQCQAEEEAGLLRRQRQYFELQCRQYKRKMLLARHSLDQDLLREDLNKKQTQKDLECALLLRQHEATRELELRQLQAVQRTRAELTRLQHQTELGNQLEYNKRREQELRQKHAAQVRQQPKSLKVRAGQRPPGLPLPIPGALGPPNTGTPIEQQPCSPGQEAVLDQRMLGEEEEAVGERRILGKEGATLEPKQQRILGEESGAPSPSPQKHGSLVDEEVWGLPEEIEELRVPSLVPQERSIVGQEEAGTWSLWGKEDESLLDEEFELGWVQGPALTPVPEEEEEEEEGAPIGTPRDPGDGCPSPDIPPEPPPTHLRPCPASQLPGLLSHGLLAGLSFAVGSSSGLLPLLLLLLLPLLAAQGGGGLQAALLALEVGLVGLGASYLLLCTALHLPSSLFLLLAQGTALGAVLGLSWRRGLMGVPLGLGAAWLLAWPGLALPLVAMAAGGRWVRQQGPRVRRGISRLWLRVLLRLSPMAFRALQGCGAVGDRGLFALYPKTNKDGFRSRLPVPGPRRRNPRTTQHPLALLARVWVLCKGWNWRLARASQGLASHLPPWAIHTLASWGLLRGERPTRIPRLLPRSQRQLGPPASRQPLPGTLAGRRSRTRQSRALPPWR
PIM1 (human), sequence (P11309 whole entry, looked up): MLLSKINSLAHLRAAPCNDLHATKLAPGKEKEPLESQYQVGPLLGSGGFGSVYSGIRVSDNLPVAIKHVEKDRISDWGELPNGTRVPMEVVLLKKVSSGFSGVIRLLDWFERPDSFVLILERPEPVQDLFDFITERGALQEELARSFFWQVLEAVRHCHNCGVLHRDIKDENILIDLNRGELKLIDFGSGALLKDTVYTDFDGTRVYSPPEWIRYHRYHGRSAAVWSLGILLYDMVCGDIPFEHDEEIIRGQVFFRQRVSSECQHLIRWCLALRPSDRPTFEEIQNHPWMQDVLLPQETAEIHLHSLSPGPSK
CRK2 (P.falciparum), sequence (P61075 whole entry, looked up): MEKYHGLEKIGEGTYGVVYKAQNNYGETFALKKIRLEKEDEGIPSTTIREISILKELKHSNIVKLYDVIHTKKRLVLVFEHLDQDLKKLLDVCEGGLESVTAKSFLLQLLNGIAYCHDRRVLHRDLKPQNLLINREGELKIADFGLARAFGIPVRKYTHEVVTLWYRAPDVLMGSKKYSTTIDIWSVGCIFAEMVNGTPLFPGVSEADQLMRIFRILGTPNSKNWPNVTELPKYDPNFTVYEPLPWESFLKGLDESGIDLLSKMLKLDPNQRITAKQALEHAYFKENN

Row | Structure (SMILES) | kinase still bound, per cent of control [1] | kinase still bound, per cent of control [2] | kinase still bound, per cent of control [3] | kinase still bound, per cent of control [4] | kinase still bound, per cent of control [5] | kinase still bound, per cent of control [6] | kinase still bound, per cent of control [7] | kinase still bound, per cent of control [8] | kinase still bound, per cent of control [10] | kinase still bound, per cent of control [11] | kinase still bound, per cent of control [12] | kinase still bound, per cent of control [13] | kinase still bound, per cent of control [14] | kinase still bound, per cent of control [15] | kinase still bound, per cent of control [16] | kinase still bound, per cent of control [17] | kinase still bound, per cent of control [18] | kinase still bound, per cent of control [19] | kinase still bound, per cent of control [20] | kinase still bound, per cent of control [21] | other results
1 | COc1cc2ncn(-c3cc(OCc4ccccc4C(F)(F)F)c(C(N)=O)s3)c2cc1OC | 76% | 3.4% | 100% | 87% | 77% | 99% | 100% | 72% | 60% | 100% | 64% | 4.1% | 67% | 20% | 75% | 76% | 89% | 9.9% | 76% | 52% | kinase still bound, per cent of control [9]: 84%; kinase still bound, per cent of control [22]: 18%; kinase still bound, per cent of control [23]: 100%; kinase still bound, per cent of control [24]: 50%; kinase still bound, per cent of control [25]: 53%; kinase still bound, per cent of control [26]: 69%; kinase still bound, per cent of control [27]: 52%; kinase still bound, per cent of control [28]: 83%; kinase still bound, per cent of control [29]: 6%; kinase still bound, per cent of control [30]: 100%; kinase still bound, per cent of control [31]: 89%; kinase still bound, per cent of control [32]: 81%; kinase still bound, per cent of control [33]: 100%; kinase still bound, per cent of control [34]: 82%; kinase still bound, per cent of control [35]: 15%; kinase still bound, per cent of control [36]: 100%; kinase still bound, per cent of control [37]: 93%; kinase still bound, per cent of control [38]: 40%
2 | COCC(=O)NC/C=C/c1ccc2ncnc(Nc3ccc(Oc4ccc(C)nc4)c(C)c3)c2c1 | 86% | 88% | 95% | 100% | 100% | 100% | 95% | 93% | 92% | 100% | 100% | 91% | 82% | 93% | 100% | 100% | 100% | 74% | 100% | 100% | kinase still bound, per cent of control [39]: 100%; kinase still bound, per cent of control [22]: 100%; kinase still bound, per cent of control [23]: 88%; kinase still bound, per cent of control [25]: 100%; kinase still bound, per cent of control [26]: 73%; kinase still bound, per cent of control [27]: 100%; kinase still bound, per cent of control [28]: 71%; kinase still bound, per cent of control [29]: 100%; kinase still bound, per cent of control [30]: 20%; kinase still bound, per cent of control [32]: 92%; kinase still bound, per cent of control [33]: 100%; kinase still bound, per cent of control [34]: 100%; kinase still bound, per cent of control [35]: 74%; kinase still bound, per cent of control [36]: 55%; kinase still bound, per cent of control [37]: 100%; kinase still bound, per cent of control [38]: 81%
3 | CNC(=O)c1cc(Oc2ccc(NC(=O)Nc3ccc(Cl)c(C(F)(F)F)c3)cc2)ccn1 | 100% | 100% | 70% | 0.05% | 100% | 100% | 100% | 100% | 16% | 94% | 100% | 100% | 81% | 100% | 100% | 86% | 98% | 3% | 99% | 100% | kinase still bound, per cent of control [9]: 100%; kinase still bound, per cent of control [23]: 88%; kinase still bound, per cent of control [24]: 98%; kinase still bound, per cent of control [25]: 100%; kinase still bound, per cent of control [26]: 78%; kinase still bound, per cent of control [27]: 81%; kinase still bound, per cent of control [28]: 100%; kinase still bound, per cent of control [29]: 100%; kinase still bound, per cent of control [30]: 100%; kinase still bound, per cent of control [32]: 99%; kinase still bound, per cent of control [33]: 1.6%; kinase still bound, per cent of control [34]: 100%; kinase still bound, per cent of control [35]: 69%; kinase still bound, per cent of control [36]: 100%; kinase still bound, per cent of control [37]: 94%; kinase still bound, per cent of control [38]: 70%
